Data published in patent US20090215893A1, “Parakeratosis inhibitor, pore-shrinking agent,or rough skin preventing/ameliorating agent, and external composition for skin” (Shiseido Company Ltd, priority 2005, published 2009).

Tests used:
[1] = test system: pores of the cheeks of healthy human males; assay: Human pore-shrinking effect (replica assessment of cheek pores); format: in vivo; details: for Replica assessment (average of n = 5): sample 3 mass %, twice a day for one month, pore size rating 1-13, after application minus before application, control 0.3; for pore-shrinking effect: summary of Table 2, concentrations as in Table 2
[2] = test system: cheek of a panel of 20 women; assay: Sensory irritation tests; format: in vivo, human; details: for Evaluation (sensory irritation, class of average rating): sample 3 mass %, 1 mL on cheek, evaluated for ten minutes, 20 women; for sensory irritation: summary of Table 4, β-alanine at 3%
Outline: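 A cotton swab applied 1 mL of control or sample aqueous solution to opposite cheeks of 20 women. Irritation was scored 0–3 every 30 s for 10 min. Average ratings were graded A (<0.2), B (0.2–<1.0), C (1.0–<2.0) or D (≥2.0).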

[3] = test system: back of a hairless mouse (HR-1), 10 mass % oleic acid applied; assay: Parakeratosis-inhibiting effect tests: oleic acid applied to hairless mouse back, macroscopic rough skin evaluation and parakeratosis value; format: in vivo; details: for Macroscopic evaluation (average of four animals) / Parakeratosis value (average of four animals): sample 3 mass %; for Macroscopic evaluation (average of four animals): 100 μL after oleic acid, three days, rough skin score 0.0 (no redness) to 2.0 (control); for Parakeratosis value (average of four animals): tape-stripped stratum corneum, hematoxylin, range 1.0 to 3.0, higher = parakeratosis advanced, control 2.0; for parakeratosis value / parakeratosis-inhibiting effect / rough skin preventing effect, based on stratum corneum peeling and redness: summary of Table 1, concentrations as in Table 1
Outline: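 Hairless mouse backs given 100 μL of 10 mass % oleic acid in ethanol, then 100 μL of sample (mainly 3 mass % in 30% ethanol, pH 7.0 to 7.5), daily for three days. Rough skin scored 0.0 to 2.0 in 0.25 steps against control. Tape-stripped, hematoxylin-stained stratum corneum rated 1.0 to 3.0 for parakeratosis.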

[4] = test system: back of hairless mice (HR-1), 10 mass % oleic acid applied; assay: Inhibiting effect against rough skin induced by oleic acid application (transepidermal water loss); format: in vivo; parameters: ΔTEWL value: unit not given here; details: for ΔTEWL value: sample 3 mass %, three days, average of four animals, rough skin worse as value increases, control 12.0; for ΔTEWL value compared with the control aqueous solution / rough skin preventing/ameliorating effect: summary of Table 3, concentrations as in Table 3
Outline: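 HR-1 hairless mice (four per group) received 100 μL 10 mass % oleic acid in ethanol on the back, then 100 μL sample solution, daily for three days. TEWL measured next day with a TEWA Meter; ΔTEWL versus before application, averaged over four animals, compared with aqueous control.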

| SMILES | Replica assessment (average of n = 5) [1] | pore-shrinking effect [1] | Evaluation (sensory irritation, class of average rating) [2] | sensory irritation [2] | Macroscopic evaluation (average of four animals) [3] | Parakeratosis value (average of four animals) [3] | parakeratosis value / parakeratosis-inhibiting effect [3] | rough skin preventing effect, based on stratum corneum peeling and redness [3] | ΔTEWL value [4] | ΔTEWL value compared with the control aqueous solution / rough skin preventing/ameliorating effect [4] |
| --- | --- | --- | --- | --- | --- | --- | --- | --- | --- | --- |
| CCN[C@@H](CO)C(=O)O [N-ethyl-L-serine] | −1.2 | seen | A (average rating of less than 0.2) | no problems | 1.4 | 1.4 | reduced | seen | 7.7 | significantly lower |
| CN[C@H](C)C(=O)O [N-methyl-D-alanine] | −0.7 | seen | A (average rating of less than 0.2) | no problems | 1.2 | 1.3 | reduced | seen | 8.2 | significantly lower |
| CN[C@H](CO)C(=O)O [N-methyl-D-serine] | −1.5 | seen | A (average rating of less than 0.2) | no problems | 1.4 | 1.5 | reduced | seen | 8.0 | significantly lower |
| CN[C@@H](C)C(=O)O [N-methyl-L-alanine] | −0.8 | seen | A (average rating of less than 0.2) | no problems | 1.4 | 1.4 | reduced | seen | 8.3 | significantly lower |
| CN[C@@H](CO)C(=O)O [N-methyl-L-serine] | −1.2 | seen | A (average rating of less than 0.2) | no problems | 1.3 | 1.2 | reduced | seen | 7.9 | significantly lower |
